Assay results published in patent US20090312336A1, “DIHYDROPTERIDINE COMPOUNDS AS ANTI PROLIFERATIVE AGENTS” (ASTRAZENECA AB, priority 2006, published 2009).
pIC50: −log10 of the molar value. Where two headings read alike, the source gives them in different places.

Assays:
recombinant Plk1 = molecular target: T1, recombinant Plk1 (Homo sapiens, UniProt P53350); experiment: In vitro Plk1 enzyme assay (SPA); format: biochemical
T1 construct: The full-length Plk1 protein is expressed in insect cells as an N-terminal 6His tag fusion; 6His (N); made in house; host or cells: insect cells (Plk1); E. coli (GST-Cdc25C substrate)
T1 sequence (P53350 whole entry, the tested form may be a part): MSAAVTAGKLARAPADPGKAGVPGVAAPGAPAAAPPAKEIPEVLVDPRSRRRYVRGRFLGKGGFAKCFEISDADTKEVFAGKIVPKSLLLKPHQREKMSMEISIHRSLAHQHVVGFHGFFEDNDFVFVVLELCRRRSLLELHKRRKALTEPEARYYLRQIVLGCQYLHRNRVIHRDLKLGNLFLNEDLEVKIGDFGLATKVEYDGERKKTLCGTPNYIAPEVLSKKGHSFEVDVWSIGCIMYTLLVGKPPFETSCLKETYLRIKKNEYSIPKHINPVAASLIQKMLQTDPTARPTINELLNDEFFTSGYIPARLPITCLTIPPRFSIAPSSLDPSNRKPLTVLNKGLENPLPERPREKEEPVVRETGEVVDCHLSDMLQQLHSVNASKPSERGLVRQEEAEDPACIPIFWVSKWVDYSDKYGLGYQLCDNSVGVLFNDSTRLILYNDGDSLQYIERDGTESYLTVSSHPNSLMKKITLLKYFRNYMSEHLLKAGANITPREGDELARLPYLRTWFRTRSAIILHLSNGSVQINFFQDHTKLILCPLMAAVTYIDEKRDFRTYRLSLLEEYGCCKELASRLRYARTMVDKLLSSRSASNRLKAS
Excerpt: The assay uses Scintillation Proximity Assay (SPA) technology (Antonsson et al., Analytical Biochemistry, 1999, 267: 294-299) to determine the ability of test compounds to inhibit phosphorylation by recombinant Plk1. The full-length Plk1 protein is expressed in insect cells as an N-terminal 6His tag fusion and purified by standard Nickel chelate purification techniques using the His tag.
The amino terminal fragment of Cdc25C (encoding residues 1-165) is expressed in E. coli as a GST fusion and purified using the GST tag by standard purification techniques.
Test compounds were prepared as 10 mM stock solutions in dimethyl sulphoxide (DMSO) and diluted into water as required to give a range of final assay concentrations. Aliquots (5 μl) of each compound dilution were dispensed into a well of a 384-well flat bottom white polystyrene plate (Matrix, Catalogue No. 4316). A 35 μl mixture of recombinant purified Plk1 enzyme (12 ng/well), purified GST-Cdc25C (150 ng/well), adenosine triphosphate (ATP; 64 nM), ^33P-labelled adenosine triphosphate (^33P-ATP; 60 nCi/well) in a buffer solution [comprising 50 mM HEPES pH7.5 buffer, 10 mM manganese chloride (MnCl2), 1 mM dithiothreitol (DTT), 1 mg/ml bovine serum albumin (BSA), 100 μM sodium vanadate (Na3VO4), 100 μM sodium fluoride (NaF) and 10 mM sodium glycerophosphate] was added and the reactions incubated at ambient temperature for 90 minutes.
Reactions were stopped by addition of EDTA (110 mM) and the Cdc25C substrate captured via its GST tag to anti-GST antibody (Molecular Probes, Cat No A-5800) coated Protein A PVT SPA beads (Amersham Biosciences, Catalogue No. RPQ0019; 250 μg/well) in 50 mM HEPES pH7.5 buffer containing 0.05% (w/v) sodium azide and incubated for up to 2 hours, followed by the addition of 20 μl of 4M caesium chloride (final assay concentration of 1M). Plates were then left in the dark overnight before counting on a Packard TopCount NXT.
Radiolabelled phosphorylated substrate is formed in situ as a result of Plk1 mediated phosphorylation. The SPA beads contain a scintillant that can be stimulated to emit light. This stimulation only occurs when a radiolabelled phosphorylated substrate is bound to the surface of the coated SPA bead causing the emission of blue light that can be measured on a scintillation counter. Accordingly, the extent of Plk1 mediated Cdc25C phosphorylation was assessed. The raw assay data were then analysed by non-linear regression analysis and Plk1 enzyme inhibition for a given test compound is expressed as an IC50 value.

[1] = system: human colon tumour cell line HT29; experiment: Cellular assay: phosphohistone H3 mitotic marker in HT29 cells; format: cell-based; settings: HT-29, 24 h, phosphohistone H3 staining
Description: Chromosome condensation in mitosis is accompanied by phosphorylation of histone H3 on serine 10. Dephosphorylation begins in anaphase and ends at early telophase, thus histone H3 serine 10 phosphorylation acts as an excellent mitotic marker and is used to determine the ability of compounds of the present invention to block cells in mitosis.
Cells of the human colon tumour cell line HT29 were seeded into 96 well black plates (Costar, Catalogue No 3904) in phenol red free Dulbecco's Modified Eagles Medium (DMEM) supplemented with 10% (v/v) FCS and 1% (v/v) L-Glutamine and incubated overnight at 37° C. […] Cells were again washed with PBS and incubated with 50 μl secondary antibody (1:1000 Alexa Fluor 488 goat anti-rabbit (Molecular Probes Cat No A-11008) and Hoechst (1:10000) diluted in PBS 0.05% (v/v) Tween 20 and left for 1 hour at room temperature in the dark. Cells were washed with PBS then covered with fresh PBS and stored at 4° C. until analysis. Images are acquired and analysed in an automated manner using the Cellomics ArrayScan II or VTi. In this assay both hoechst and phosphohistone H3 staining are measured. Hoechst staining generates a valid cell count while phosphohistone H3 staining determines the number of mitotic cells. […] The raw assay data were analysed by non-linear regression analysis and used to determine an IC50 value for each compound.

[2] = Plk1 enzyme, class symbols for IC50, read-out: Kinase Inhibition

| pIC50 (recombinant Plk1; [2]) | pIC50 (recombinant Plk1; Plk1 enzyme assay, read-out: IC50 value in the enzyme assay) | pIC50 [1] | Structure (SMILES) |
| --- | --- | --- | --- |
| > 5.52 | – | – | CC[C@@H]1CN(C)c2cnc(Nc3ccc(C(=O)NC4CCN(C)CC4)cc3OC)nc2N1C1CCCC1 [Example 1, 4-[[(7R)-8-Cyclopentyl-7-ethyl-5-methyl-6,7-dihydropteridin-2-yl]amino]-3-methoxy-N-(1-methyl-4-piperidyl)benzamide] |
| > 5.52 | – | – | CC[C@@H]1CN(C)c2cnc(Nc3ccc(C(=O)NCC(C)(C)CN(C)C)cc3OC)nc2N1C1CCCC1 [Example 2, 4-[[(7R)-8-Cyclopentyl-7-ethyl-5-methyl-6,7-dihydropteridin-2-yl]amino]-N-(3-dimethylamino-2,2-dimethyl-propyl)-3-methoxy-benzamide] |
| 4.82 to 5.22 | – | – | CC[C@@H]1CN(C)c2cnc(Nc3ccc(CNCC(C)(C)CN(C)C)cc3OC)nc2N1C1CCCC1 [Example 3, N-[[4-[[(7R)-8-Cyclopentyl-7-ethyl-5-methyl-6,7-dihydropteridin-2-yl]amino]-3-methoxy-phenyl]methyl]-N′,N′,2,2-tetramethyl-propane-1,3-diamine] |
| 5.22 to 5.52 | – | – | CC[C@@H]1CN(C)c2cnc(Nc3ccc(CNC4CCN(C)CC4)c(F)c3)nc2N1C1CCCC1 [Example 4, (7R)-8-Cyclopentyl-7-ethyl-N-[3-fluoro-4-[[(1-methyl-4-piperidyl)amino]methyl]phenyl]-5-methyl-6,7-dihydropteridin-2-amine] |
| > 5.52 | – | – | CC[C@@H]1CN(CC)c2cnc(Nc3ccc(C(=O)NC4CCN(C)CC4)cc3OC)nc2N1C1CCCC1 [Example 5, 4-[[(7R)-8-Cyclopentyl-5,7-diethyl-6,7-dihydropteridin-2-yl]amino]-3-methoxy-N-(1-methyl-4-piperidyl)benzamide] |
| > 5.52 | 6.16 | 6.59 | COc1cc(C(=O)NC2CCN(C)CC2)ccc1Nc1ncc2c(n1)N(C1CCCC1)[C@H](C1CC1)CN2C [Example 6, 4-{[(7R)-8-Cyclopentyl-7-cyclopropyl-5-methyl-5,6,7,8-tetrahydropteridin-2-yl]amino}-3-methoxy-N-(1-methylpiperidin-4-yl)benzamide] |
| > 5.52 | – | – | CCC[C@@H]1CN(C)c2cnc(Nc3ccc(C(=O)NC4CCN(C)CC4)cc3OC)nc2N1C1CCCC1 [Example 7, 4-{[(7R)-8-Cyclopentyl-5-methyl-7-propyl-5,6,7,8-tetrahydropteridin-2-yl]amino}-3-methoxy-N-(1-methylpiperidin-4-yl)benzamide] |
| > 5.52 | – | – | CCOc1cc(C(=O)NC2CCN(C)CC2)ccc1Nc1ncc2c(n1)N(C1CCCC1)[C@H](CC)CN2C [Example 8, 4-[[(7R)-8-Cyclopentyl-7-ethyl-5-methyl-6,7-dihydropteridin-2-yl]amino]-3-ethoxy-N-(1-methyl-4-piperidyl)benzamide] |
